In paper PMC11129182, “Development of Inhibitors, Probes, and PROTAC Provides a Complete Toolbox to Study PARK7 in the Living Cell” (Journal of Medicinal Chemistry, 2024):
Like-named read-outs stand apart in the source and are kept apart here.

Tests used:
[1] = target: T1, PARK7 (Homo sapiens, UniProt Q99497); test: High-throughput screen of the crude compound library, PARK7 fluorescence polarization (FP) assay with FP reagent JYQ-107; assay type: biochemical; conditions: 1.25 µM, crude compound library, read-out: HTS FP assay %Inhibition (1.25 µM)
T1 sequence (Q99497 1-189): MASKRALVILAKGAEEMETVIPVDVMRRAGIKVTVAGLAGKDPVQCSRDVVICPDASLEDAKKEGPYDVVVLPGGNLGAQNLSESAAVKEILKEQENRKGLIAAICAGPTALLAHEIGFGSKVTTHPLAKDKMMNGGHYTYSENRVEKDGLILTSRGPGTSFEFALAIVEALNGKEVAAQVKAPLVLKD

[2] = target: T1, PARK7; test: Hit validation and pure-compound testing in the PARK7 FP assay with JYQ-107; assay type: biochemical; conditions: for inhibition at 0.25 µM: read-out: % Inhibition 0.25 µM; for inhibition at 0.5 µM: read-out: % Inhibition 0.5 µM

SMILES | inhibition at 1.25 µM [1] | inhibition at 0.25 µM ([2]; crude compounds) | inhibition at 0.5 µM ([2]; crude compounds) | inhibition at 1 µM ([2]; crude compounds) | inhibition at 0.25 µM ([2]; pure compounds) | inhibition at 1 µM ([2]; pure compounds) | inhibition at 1.25 µM ([1]; FP reagent JYQ-107)
Cc1ccc(-c2cc(C(=O)N3CCc4nc(NC(=O)[C@@H]5CCN(C#N)C5)sc4C3)[nH]n2)o1 [Compound 121] | 90.5% | 52% | 77.6% | 93.8% |  |  | 
N#CN1CC[C@@H](C(=O)Nc2nc3c(s2)CN(C(=O)c2ccc(-c4ccccn4)nc2)CC3)C1 [Compound 274] | 92.9% | 44.5% | 71.4% | 91.8% |  |  | 
COc1ccc(C(=O)N2CCc3nc(NC(=O)[C@@H]4CCN(C#N)C4)sc3C2)cc1S(=O)(=O)N1CCCCCC1 [Compound 133, (R)-N-(5-(3-(Azepan-1-ylsulfonyl)-4-methoxybenzoyl)-4,5,6,7-tetrahydrothiazolo[5,4-c]pyridin-2-yl)-1-cyanopyrrolidine-3-carboxamid] | 90.8% | 76.3% | 89.1% | 98.8% | 77.9% | 95.4% | 
Cc1ccc([C@@H]2C[C@H]2C(=O)N2CCc3nc(NC(=O)[C@@H]4CCN(C#N)C4)sc3C2)s1 [Compound 188] | 94.2% | 53.3% | 79% | 94.5% |  |  | 
N#CN1CC[C@@H](C(=O)Nc2nc3c(s2)CN(C(=O)c2cn(C4CCC4)nn2)CC3)C1 [Compound 30] | 89.2% | 52.3% | 75.7% | 93.6% |  |  | 
CC(C)c1nc(Cn2cc(C(=O)N3CCc4nc(NC(=O)[C@@H]5CCN(C#N)C5)sc4C3)ccc2=O)cs1 [Compound 149] | 93.2% | 42.9% | 69.6% | 89.6% |  |  | 
N#CN1CC[C@@H](C(=O)Nc2nc3c(s2)CN(C(=O)c2cccc(S(=O)(=O)NCc4cccs4)c2)CC3)C1 [Compound 11] | 90% | 49.3% | 77.9% | 93.6% |  |  | 
Cc1nc(-c2cnn(C)c2)sc1C(=O)N1CCc2nc(NC(=O)[C@@H]3CCN(C#N)C3)sc2C1 [Compound 112] | 91.1% | 54.6% | 78% | 93.1% |  |  | 
N#CN1CC[C@@H](C(=O)Nc2nc3c(s2)CN(C(=O)Cc2cnn(-c4ccccc4)n2)CC3)C1 [Compound 217] | 78.9% | 55.5% | 85.4% | 94.3% |  |  | 
Cn1cc(-c2cc(C(=O)N3CCc4nc(NC(=O)[C@@H]5CCN(C#N)C5)sc4C3)n[nH]2)cn1 [Compound 337] | 89.6% | 51.5% | 72.7% | 92.5% |  |  | 
N#CN1CC[C@@H](C(=O)Nc2nc3c(s2)CN(C(=O)c2cccc(Oc4ccc(Cl)cc4)n2)CC3)C1 [Compound 312] | 92.1% | 34.1% | 62.9% | 89.5% |  |  | 
N#CN1CC[C@@H](C(=O)Nc2nc3c(s2)CN(C(=O)c2cccc(Cn4ccnc4)c2)CC3)C1 [Compound 215] | 91.5% | 52.1% | 78.4% | 93.3% |  |  | 
N#CN1CC[C@@H](C(=O)Nc2nc3c(s2)CN(C(=O)c2ccc(=O)n(C4CC4)c2)CC3)C1 [Compound 369] |  | 60.5% | 81% | 94.1% |  |  | 89.2%
Cc1c[nH]c(=O)n1-c1cccc(C(=O)N2CCc3nc(NC(=O)[C@@H]4CCN(C#N)C4)sc3C2)c1 [Compound 315] | 90% | 44% | 66.5% | 91.2% |  |  | 
N#CN1CC[C@@H](C(=O)Nc2nc3c(s2)CN(C(=O)c2ccc(Cn4cc(Br)cn4)o2)CC3)C1 [Compound 140] | 90.7% | 36.9% | 62.1% | 85.7% |  |  | 
N#CN1CC[C@@H](C(=O)Nc2nc3c(s2)CN(C(=O)c2ccc(Oc4cccc(Cl)c4)cn2)CC3)C1 [Compound 268] | 89.7% | 33.9% | 63.1% | 82.8% |  |  | 
N#CN1CC[C@@H](C(=O)Nc2nc3c(s2)CN(C(=O)c2cc(S(=O)(=O)NCCCN4CCCC4=O)ccc2Cl)CC3)C1 [Compound 146] | 89.7% | 45% | 70.4% | 90.7% |  |  | 
N#CN1CC[C@@H](C(=O)Nc2nc3c(s2)CN(C(=O)c2ccc(Cl)c(N4CCCS4(=O)=O)c2)CC3)C1 [Compound 197] | 95.6% | 65.4% | 85.8% | 95% |  |  | 
COc1ccccc1-c1cc(C(=O)N2CCc3nc(NC(=O)[C@@H]4CCN(C#N)C4)sc3C2)n[nH]1 [Compound 293] | 97.5% | 48.1% | 76% | 93% |  |  | 
CC1CCCCN1S(=O)(=O)c1ccccc1C(=O)N1CCc2nc(NC(=O)[C@@H]3CCN(C#N)C3)sc2C1 (some centres unmarked) [Compound 386] |  | 57.7% | 79.9% | 95.9% |  |  | 94.5%
N#CN1CC[C@@H](C(=O)Nc2nc3c(s2)CN(C(=O)c2cnn(-c4ccc(C(F)(F)F)cc4)c2)CC3)C1 [Compound 314] | 98.2% | 43.8% | 75.1% | 93% |  |  | 
N#CN1CC[C@@H](C(=O)Nc2nc3c(s2)CN(C(=O)c2cnn(-c4ccc(Br)cc4)c2)CC3)C1 [Compound 219] | 96.4% | 65.1% | 87.4% | 96.7% |  |  | 
N#CN1CC[C@@H](C(=O)Nc2nc3c(s2)CN(C(=O)c2cn(CCc4ccccc4)nn2)CC3)C1 [Compound 76] | 91.3% | 54.4% | 78% | 92.1% |  |  | 
CCC1(Cn2cc(C(=O)N3CCc4nc(NC(=O)[C@@H]5CCN(C#N)C5)sc4C3)nn2)COC1 [Compound 83] | 92.3% | 47.6% | 73.1% | 92.7% |  |  | 
Cc1ccc(-c2cc(C(=O)N3CCc4nc(NC(=O)[C@@H]5CCN(C#N)C5)sc4C3)n[nH]2)s1 [Compound 165] | 95.1% | 56.4% | 82.2% | 95.6% |  |  | 
COc1ccc(C(=O)N2CCc3nc(NC(=O)[C@@H]4CCN(C#N)C4)sc3C2)cc1S(=O)(=O)NCCCN1CCOCC1 [Compound 242] | 89.2% | 46.8% | 71.2% | 91.4% |  |  | 
N#CN1CC[C@@H](C(=O)Nc2nc3c(s2)CN(C(=O)c2cc(-c4ccc(Cl)s4)[nH]n2)CC3)C1 [Compound 64] | 90% | 33.1% | 63.2% | 89.5% |  |  | 
N#CN1CC[C@@H](C(=O)Nc2nc3c(s2)CN(C(=O)c2cccnc2Oc2ccc(Cl)cc2Cl)CC3)C1 [Compound 345] |  | 63.1% | 85% | 95% |  |  | 92.1%
N#CN1CC[C@@H](C(=O)Nc2nc3c(s2)CN(C(=O)c2cnn(-c4ccccc4)n2)CC3)C1 [Compound 295] | 89.6% | 38.6% | 65.4% | 88% |  |  | 
N#CN1CC[C@@H](C(=O)Nc2nc3c(s2)CN(C(=O)c2cccc(-c4ncn[nH]4)c2)CC3)C1 [Compound 131] | 91% | 66.1% | 84.3% | 96.9% |  |  | 
